What was measured:
[1] = Drug concentration in total white adipose tissue in Wistar Han rat at 1 to 2 mg/kg, iv infused for 10 to 20 hrs by LC-MS/MS analysis; conditions: in vivo
[2] = Apparent permeability of the compound across dog RRCK cells by MDCK-LE assay
[3] = Drug concentration in total heart in Wistar Han rat at 1 to 2 mg/kg, iv infused for 10 to 20 hrs by LC-MS/MS analysis; conditions: in vivo
[4] = Unbound tissue partition coefficient, ratio of drug level in brain to plasma in Wistar Han rat at 1 to 2 mg/kg, iv infused for 10 to 20 hrs by LC-MS/MS analysis; conditions: brain/plasma
[5] = Drug concentration in total skeletal muscle in Wistar Han rat at 1 to 2 mg/kg, iv infused for 10 to 20 hrs by LC-MS/MS analysis; conditions: in vivo
[6] = Fraction unbound in Wistar Han rat plasma at 2 uM incubated for 6 hrs by equilibrium dialysis method
[7] = Fraction unbound in Wistar Han rat brain at 2 uM incubated for 6 hrs by equilibrium dialysis method
[8] = Drug concentration in total liver in Wistar Han rat at 1 to 2 mg/kg, iv infused for 10 to 20 hrs by LC-MS/MS analysis; conditions: in vivo
[9] = Unbound tissue partition coefficient, ratio of drug level in adipose to plasma in Wistar Han rat at 1 to 2 mg/kg, iv infused for 10 to 20 hrs by LC-MS/MS analysis; conditions: adipose/plasma
[10] = Unbound tissue partition coefficient, ratio of drug level in skeletal muscle to plasma in Wistar Han rat at 1 to 2 mg/kg, iv infused for 10 to 20 hrs by LC-MS/MS analysis; conditions: skeletal muscle/plasma
[11] = Fraction unbound in Wistar Han rat liver at 2 uM incubated for 6 hrs by equilibrium dialysis method
[12] = Total plasma concentration in Wistar Han rat at 1 to 2 mg/kg, iv infused for 10 to 20 hrs by LC-MS/MS analysis; conditions: in vivo
[13] = Fraction unbound in Wistar Han rat skeletal muscle at 2 uM incubated for 6 hrs by equilibrium dialysis method
[14] = Fraction unbound in Wistar Han rat heart at 2 uM incubated for 6 hrs by equilibrium dialysis method
[15] = Unbound tissue partition coefficient, ratio of drug level in liver to plasma in Wistar Han rat at 1 to 2 mg/kg, iv infused for 10 to 20 hrs by LC-MS/MS analysis; conditions: liver/plasma
[16] = Unbound tissue partition coefficient, ratio of drug level in heart to plasma in Wistar Han rat at 1 to 2 mg/kg, iv infused for 10 to 20 hrs by LC-MS/MS analysis; conditions: heart/plasma
[17] = Drug concentration in total brain in Wistar Han rat at 1 to 2 mg/kg, iv infused for 10 to 20 hrs by LC-MS/MS analysis; conditions: in vivo
[18] = Fraction unbound in Wistar Han rat white adipose tissue at 2 uM incubated for 6 hrs by equilibrium dialysis method

Ct [1] [ng/mL] | Papp [2] [×10⁻⁶ cm/s] | Ct [3] [ng/mL] | Kp uu [4] | Ct [5] [ng/mL] | fraction unbound at 6 h, 2 µM [6] | fraction unbound at 6 h, 2 µM [7] | Ct [8] [ng/mL] | Kp uu [9] | Kp uu [10] | fraction unbound at 6 h, 2 µM [11] | Cp [12] [ng/mL] | fraction unbound at 6 h, 2 µM [13] | fraction unbound at 6 h, 2 µM [14] | Kp uu [15] | Kp uu [16] | Ct [17] [ng/mL] | fraction unbound at 6 h, 2 µM [18] | Compound
5.4 | 0.51 | 210 | 0.16 | 7.4 | 0.692 | 1 | 630 | 0.21 | 0.1 | 0.287 | 55 | 0.595 | 1 | 5 | 5.3 | 6.8 | 0.736 | Cn1ncc(-c2ccc(C(=O)N(c3ncccc3Cl)[C@@H]3CCCNC3)cc2)c1C(=O)O
110 | 27 | 190 | 0.35 | 95 | 0.012 | 0.0113 | 690 | 4.9 | 1.3 | 0.0158 | 150 | 0.0161 | 0.016 | 9.8 | 2.3 | 39 | 0.0547 | C[C@H]1c2cccc(CCC(C)(C)O)c2C[C@H](CO)N1C(=O)Cc1c(Cl)cccc1Cl
0.77 |  | 20 | 0.0018 | 0.9 |  |  | 300 | 0.024 | 0.02 |  | 110 |  |  | 7.2 | 0.75 | 0.38 |  | O=C(O)C(=O)Nc1ccc(NC(=O)[C@H](CC2CCCC2)n2cnc(C(F)(F)F)c2)nc1
2 | 2.4 | 21 | 0.0018 | 0.89 | 0.00645 | 0.181 | 210 | 1.6 | 0.16 | 0.0789 | 72 | 0.133 | 0.0746 | 40 | 3.4 | 0.38 | 0.386 | O=C(O)c1c[nH]c2cc(Cl)c(-c3ccc(CC(=O)N4CCOCC4)cc3)cc12
8 | 7.9 | 59 | 0.0089 | 18 | 0.00273 | 0.00251 | 860 | 2.5 | 0.3 | 0.00643 | 120 | 0.00554 | 0.00542 | 18 | 1.1 | 1.5 | 0.089 | O=C(O)[C@@H]1CCCN(C(=O)n2cnc(-c3ccc(-c4cnc(N5CCOCC5)nc4)cc3)n2)[C@H]1c1ccccc1
8 | 4.4 | 56 | 0.0018 | 17 | 0.00353 | 0.0111 | 220 | 2.5 | 0.85 | 0.0134 | 120 | 0.021 | 0.0129 | 7.1 | 1.8 | 0.38 | 0.126 | Cc1ccc(CC(C)(C)NC[C@@H](O)CO[C@H](C)c2ccccc2-c2ccc(C(=O)O)c(C)c2)cc1F
20 | 5.8 | 260 | 0.048 | 110 | 0.212 | 0.0553 | 360 | 0.16 | 0.71 | 0.125 | 81 | 0.114 | 0.076 | 2.7 | 1.2 | 15 | 0.132 | COc1ccc(Cc2cc([C@@H]3OC4(COC4)[C@@H](O)[C@H](O)[C@H]3O)ccc2C)cc1
300 | 21 | 960 | 0.064 | 180 | 0.0543 | 0.0391 | 600 | 7.9 | 2.4 | 0.0949 | 120 | 0.0842 | 0.0772 | 8.6 | 11 | 10 | 0.177 | CO[C@@H]1C[C@H](C(=O)Nc2ccc(-n3cc(Cl)ccc3=O)cc2F)N(C(=O)Nc2ccc(Cl)cc2)C1
270 | 30 | 110 | 0.46 | 75 | 0.178 | 0.103 | 380 | 2.3 | 1.5 | 0.195 | 66 | 0.23 | 0.171 | 6.2 | 1.7 | 52 | 0.101 | Cc1nc([C@@H]2CCOC2)c2c(N3CCc4c(c(C5CC5)nn4C)C3)ncnn12
5.7 | 1.4 | 44 | 0.0037 | 21 | 0.214 | 0.183 | 4200 | 0.1 | 0.21 | 0.205 | 83 | 0.174 | 0.311 | 49 | 0.77 | 0.42 | 0.309 | CN(C)C(=O)c1cc(CC(=O)O)ccc1NC(=O)c1ccccc1-c1ccc(C(F)(F)F)cc1
27 | 21 | 110 | 0.015 | 68 | 0.614 | 0.0796 | 170 | 0.51 | 1.5 | 0.375 | 30 | 0.385 | 0.341 | 3.8 | 2.2 | 3.4 | 0.329 | COCCCN1C[C@H](C)N(C(=O)N2Cc3c(NC(=O)c4ccccn4)n[nH]c3C2(C)C)C[C@H]1C

Compound | Ct [1] [ng/mL] | Papp [2] [×10⁻⁶ cm/s] | Ct [3] [ng/mL] | Kp uu [4] | Ct [5] [ng/mL] | fraction unbound at 6 h, 2 µM [6] | fraction unbound at 6 h, 2 µM [7] | Ct [8] [ng/mL] | Kp uu [9] | Kp uu [10] | fraction unbound at 6 h, 2 µM [11] | Cp [12] [ng/mL] | fraction unbound at 6 h, 2 µM [13] | fraction unbound at 6 h, 2 µM [14] | Kp uu [15] | Kp uu [16] | Ct [17] [ng/mL] | fraction unbound at 6 h, 2 µM [18]
CC1(C)CN(CCC#N)C(=O)[C@@H]1Oc1ccc(C#N)c(C(F)(F)F)c1 | 250 | 40 | 210 | 0.11 | 110 | 0.358 | 0.0717 | 500 | 0.81 | 0.48 | 0.122 | 160 | 0.263 | 0.152 | 1 | 0.55 | 91 | 0.185
CC(C)(O)CS(=O)(=O)c1ccc2c(c1)nc(C(C)(C)C)n2CC1CCOCC1 | 55 | 28 | 91 | 0.13 | 60 | 0.469 | 0.538 | 320 | 1.7 | 0.48 | 0.437 | 55 | 0.203 | 0.321 | 5.4 | 1.1 | 6.2 | 0.786
CC(=O)N1CCN(c2ccc(OCC3COC(Cn4ccnc4)(c4ccc(Cl)cc4Cl)O3)cc2)CC1 (stereo not drawn) [KETOCONAZOLE] |  | 4.2 |  |  |  |  |  |  |  |  |  |  |  |  |  |  |  | 
